Test results reported in patent US7906522B2, “2-aminoquinazoline derivatives” (Kyowa Hakko Kirin Co., Ltd, priority 2005, dated 2011).

These compounds were tested against T1, Activated human p38α (Homo sapiens, UniProt Q16539) (assay: p38MAP kinase inhibition test). Conditions: at a concentration of 1 μmol/L; substrate myelin basic protein, ATP 20 μmol/L, [γ-32P]ATP; read-out: enzyme inhibitory activity.
T1 construct: purchased Upstate Biotechnology Inc. 14-251
Type: biochemical
Description: p38MAP Kinase Inhibition Test
Activated human p38α was purchased from Upstate Biotechnology Inc. (Catalog No. 14-251). P38MAP kinase inhibitory activity was measured by the procedure described below with reference to the method by Whitmarsh A. J. and Davis R. J. [Methods in Enzymology (Method. Enzymol.), vol. 332, p. 319-336 (2001)]. As the substrate to be phosphorylated, a myelin basic protein (Catalog No. 133-13493, Wako Pure Chemical Industries, Ltd.) (20 μg/assay) was used. The reaction was carried out in a solution containing 3-[N-Morpholino]propanesulfonic acid (MOPS) (20 mmol/L, pH 7.2), β-glycerophosphoric acid (Sigma Corp.) (25 mmol/L), ethylenebis(oxyethylenenitrilo)tetraacetic acid (EGTA) (1 mmol/L), […] (Sigma-Aldrich Corp.) (1 mmol/L), dithiothreitol (DTT, Wako Pure Chemical Industries, Ltd.) (1 mmol/L), adenosine 5′-triphosphate (ATP, Sigma Corp.) (20 μmol/L), and MgCl2 (18.75 mmol/L) (total 40 μL/assay). The reaction was started by adding human p38α and [γ-^32P]ATP (1 μCi/assay), and incubation was performed at 30° C. for 15 minutes. The reaction was terminated by adding 4.5% v/v phosphoric acid (10 μL/well). Then, 45 μL of the reaction mixture was adsorbed onto phosphocellulose paper (p81 paper, Code No. 3698023, Whatman International, Maidstone, UK). The phosphocellulose paper was washed with 0.75% v/v phosphoric acid. Then, the radioactivity of the phosphorylated myelin basic protein ([^32P]) remaining on the phosphocellulose paper was measured with a scintillation counter (TRI-CARB2700TR, PerkinElmer, Boston, Mass., USA) using program No. 27 (data mode: cpm, measurement time: 1 min, Background substract: none, energy range measured: LL 0.0-UL 2000) or a scintillation counter (LS6500, BeckmanCoulter, Fullerton, Calif., USA) using program No. 17 (data mode: cpm, measurement time: 1 min, Background substract: none, energy range measured: high). The test compound was dissolved in DMSO before addition.

T1 sequence (Q16539 whole entry): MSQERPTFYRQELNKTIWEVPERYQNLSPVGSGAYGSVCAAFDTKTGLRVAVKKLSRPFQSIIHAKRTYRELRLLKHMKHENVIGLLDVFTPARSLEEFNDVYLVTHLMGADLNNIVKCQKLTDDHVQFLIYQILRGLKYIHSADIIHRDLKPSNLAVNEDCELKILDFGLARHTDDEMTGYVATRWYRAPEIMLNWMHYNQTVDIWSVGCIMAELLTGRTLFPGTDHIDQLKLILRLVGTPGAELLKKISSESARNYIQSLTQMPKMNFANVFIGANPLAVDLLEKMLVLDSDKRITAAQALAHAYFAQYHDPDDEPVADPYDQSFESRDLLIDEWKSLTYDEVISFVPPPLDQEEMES

Row | SMILES | inhibition at 1 µM
1 | COc1cc2nc(N[C@@H](C)C(C)C)ncc2cc1-c1ccccc1C [Compound 168, (S)-2-(3-methyl-2-butylamino)-7-methoxy-6-(2-methylphenyl)quinazoline] | ≥ 50%
2 | COc1cc2nc(NC3CCN(S(C)(=O)=O)CC3)ncc2cc1-c1ccccc1Cl [Compound 12, 6-(2-Chlorophenyl)-2-[1-(methylsulfonyl)piperidin-4-ylamino]-7-methoxyquinazoline] | ≥ 50%
3 | COc1cc2nc(NC(C)C)ncc2cc1-c1cccc(C)c1 [Compound 203, 2-Isopropylamino-7-methoxy-6-(3-methylphenyl)quinazoline] | ≥ 50%
4 | COc1cc2nc(NC(C)C)ncc2cc1-c1ccccc1O [Compound 186, 6-(2-Hydroxyphenyl)-2-isopropylamino-7-methoxyquinazoline] | ≥ 50%
5 | CC(C)Nc1ncc2cc(C(=O)c3ccc(F)cc3)c(O)cc2n1 [Compound 131, 6-(4-Fluorobenzoyl)-7-hydroxy-2-(isopropylamino)quinazoline] | ≥ 50%
6 | Cc1ccc(NC(=O)c2ccncc2)cc1-c1ccc2nc(NC(C)C)ncc2c1 [Compound 259, 2-Isopropylamino-6-{2-methyl-5-[(4-pyridyl)carbonylamino]phenyl}quinazoline] | ≥ 50%
7 | Cc1ccc(NC(=O)C2CCC2)cc1-c1cc2cnc(NC(C)C)nc2cc1O [Compound 293, 6-(5-Cyclobutylcarbonylamino-2-methylphenyl)-7-hydroxy-2-(isopropylamino)quinazoline] | ≥ 50%
8 | COc1cc2nc(NC3CCN(S(C)(=O)=O)C3)ncc2cc1-c1ccccc1Cl (stereo not shown) [Compound 145, 6-(2-Chlorophenyl)-7-methoxy-2-[1-(methylsulfonyl)pyrrolidin-3-ylamino]quinazoline] | ≥ 50%
9 | CCCS(=O)(=O)N1CCC(Nc2ncc3cc(-c4ccccc4Cl)c(O)cc3n2)CC1 [Compound 162, 6-(2-Chlorophenyl)-7-hydroxy-2-[1-(1-propylsulfonyl)piperidin-4-ylamino]quinazoline] | ≥ 50%
10 | CC(C)Nc1ncc2cc(-c3ccccc3Cl)c(OCC(=O)N3CCN(C)CC3)cc2n1 [Compound 40, 6-(2-Chlorophenyl)-2-isopropylamino-7-[(4-methylpiperazin-1-ylcarbonyl)methyloxy]quinazoline] | ≥ 50%
11 | COc1cc2nc(NC(C)C)ncc2cc1-c1cccc(NC(=O)c2cccc(F)c2)c1 [Compound 219, 6-{3-[(3-Fluorophenyl)carbonylamino]phenyl}-2-isopropylamino-7-methoxyquinazoline] | ≥ 50%
12 | COc1cc2nc(NC(C)C)ncc2cc1-c1cc(N)ccc1C [Compound 229, 6-(5-Amino-2-methylphenyl)-2-isopropylamino-7-methoxyquinazoline] | ≥ 50%
13 | CC(C)CNc1ncc2cc(-c3ccccc3Cl)c(O)cc2n1 [Compound 160, 6-(2-Chlorophenyl)-7-hydroxy-2-isobutylaminoquinazoline] | ≥ 50%
14 | CNc1ncc2cc(-c3cc(NC(=O)c4ccc[nH]4)ccc3C)c(OC)cc2n1 [Compound 251, 7-Methoxy-2-methylamino-6-{2-methyl-5-[(1H-pyrrol-2-yl)carbonylamino]phenyl}quinazoline] | ≥ 50%
15 | COc1cc2nc(N[C@H]3CC[C@H](N)CC3)ncc2cc1-c1ccccc1Cl [Compound 5, 2-(trans-4-Aminocyclohexylamino)-6-(2-chlorophenyl)-7-methoxyquinazoline] | ≥ 50%
16 | COc1cc2nc(NC(C)C)ncc2cc1-c1cccc(C(C)=O)c1 [Compound 199, 6-(3-Acetylphenyl)-2-isopropylamino-7-methoxyquinazoline] | ≥ 50%
17 | COc1cc2nc(NC(C)C)ncc2cc1-c1cc([N+](=O)[O-])ccc1CO [Compound 223, 6-(2-Hydroxymethyl-5-nitrophenyl)-2-isopropylamino-7-methoxyquinazoline] | ≥ 50%
18 | COc1cc2nc(NC(C)C)ncc2cc1-c1cccc(OC(C)=O)c1 [Compound 202, 6-(3-Acetoxyphenyl)-2-isopropylamino-7-methoxyquinazoline] | ≥ 50%
19 | COc1cc2nc(NC(C)C)ncc2cc1-c1ccc(F)cc1C [Compound 206, 6-(4-Fluoro-2-methylphenyl)-2-isopropylamino-7-methoxyquinazoline] | ≥ 50%
20 | COc1cc2nc(NC(C)C)ncc2cc1-c1cccc(NC(=O)c2cccc(C(F)(F)F)c2)c1 [Compound 216, 2-Isopropylamino-7-methoxy-6-{3-[(3-trifluoromethylphenyl)carbonylamino]phenyl}quinazoline] | ≥ 50%
21 | CC(C)Nc1ncc2cc(-c3cc(NC(=O)c4ccnc(N5CCOCC5)c4)ccc3O)ccc2n1 [Compound 266, 6-{2-Hydroxy-5-[(2-morpholinopyridin-4-yl)carbonylamino]phenyl]-2-(isopropylamino)quinazoline] | ≥ 50%
22 | N[C@H]1CC[C@H](Nc2ncc3cc(-c4ccccc4Cl)c(O)cc3n2)CC1 [Compound 158, 2-(trans-4-Aminocyclohexylamino)-6-(2-chlorophenyl)-7-hydroxyquinazoline] | ≥ 50%
23 | COc1cc2nc(NC(C)C)ncc2cc1-c1cccc(OC)c1F [Compound 207, 6-(2-Fluoro-3-methoxyphenyl)-2-isopropylamino-7-methoxyquinazoline] | ≥ 50%
24 | COc1cc2nc(NC(C)C)ncc2cc1-c1cccc(NC(=O)C2CC2)c1 [Compound 220, 6-[3-(Cyclopropylcarbonylamino)phenyl]-2-isopropylamino-7-methoxyquinazoline] | ≥ 50%

Second part, the compound after the results:

Row | inhibition at 1 µM | SMILES
25 | ≥ 50% | CCCOC(=O)c1c(OC)c(-c2ccccc2Cl)cc2cnc(NC(C)C)nc12 [Compound 62, 6-(2-Chlorophenyl)-2-isopropylamino-7-methoxy-8-(propoxycarbonyl)quinazoline]
26 | ≥ 50% | CC(C)Nc1ncc2cc(-c3ccccc3Cl)c(OCCCC(=O)O)cc2n1 [Compound 31, 7-(3-Carboxypropyloxy)-6-(2-chlorophenyl)-2-isopropylaminoquinazoline]
27 | ≥ 50% | CC(C)Nc1ncc2cc(-c3ccccc3Cl)c(OCC(=O)N3CCOCC3)cc2n1 [Compound 39, 6-(2-Chlorophenyl)-2-isopropylamino-7-[(morpholinocarbonyl)methyloxy]quinazoline]
28 | ≥ 50% | CC(C)Nc1ncc2cc(-c3ccccc3Cl)c(O)c(-c3ccccc3F)c2n1 [Compound 100, 6-(2-Chlorophenyl)-8-(2-fluorophenyl)-7-hydroxy-2-(isopropylamino)quinazoline]
29 | ≥ 50% | CC(C)Nc1ncc2cc(-c3ccccc3Cl)c(O)c(I)c2n1 [Compound 88, 6-(2-Chlorophenyl)-7-hydroxy-8-iodo-2-(isopropylamino)quinazoline]
30 | ≥ 50% | COC(=O)c1c(OC)c(-c2ccccc2Cl)cc2cnc(NC(C)C)nc12 [Compound 61, 6-(2-Chlorophenyl)-2-isopropylamino-7-methoxy-8-(methoxycarbonyl)quinazoline]
31 | ≥ 50% | CCN(CC)C(=O)c1c(OC)c(-c2ccccc2Cl)cc2cnc(NC(C)C)nc12 [Compound 68, 6-(2-Chlorophenyl)-8-(N,N-diethylaminocarbonyl)-2-isopropylamino-7-methoxyquinazoline]
32 | ≥ 50% | CC(C)Nc1ncc2cc(-c3ccccc3Cl)c3oc(C(C)(C)O)cc3c2n1 [Compound 112, 6-(2-Chlorophenyl)-8-(1-hydroxy-1-methylethyl)-2-(isopropylamino)furo[2,3-h]quinazoline]
33 | ≥ 50% | COc1cc2nc(NC(C)C)ncc2cc1-c1ccccc1C(C)=O [Compound 187, 6-(2-Acetylphenyl)-2-isopropylamino-7-methoxyquinazoline]
34 | ≥ 50% | CC(C)Nc1ncc2cc(-c3ccccc3Cl)c(-c3ccc(C(=O)O)cc3)cc2n1 [Compound 41, 7-(4-Carboxyphenyl)-6-(2-chlorophenyl)-2-isopropylaminoquinazoline]
35 | ≥ 50% | CC(C)Nc1ncc2cc(-c3ccccc3Cl)c(O)c(-c3ccc(CC(=O)O)cc3)c2n1 [Compound 95, 8-[4-(Carboxymethyl)phenyl]-6-(2-chlorophenyl)-7-hydroxy-2-(isopropylamino)quinazoline]
36 | ≥ 50% | CC(C)Nc1ncc2cc(-c3ccccc3Cl)c(OCCCCO)cc2n1 [Compound 25, 6-(2-Chlorophenyl)-7-(4-hydroxybutyloxy)-2-isopropylaminoquinazoline]
37 | ≥ 50% | CCOC(=O)COc1c(-c2ccccc2Cl)cc2cnc(NC(C)C)nc2c1C(C)=O [Compound 79, 8-Acetyl-6-(2-chlorophenyl)-7-(ethoxycarbonylmethyloxy)-2-(isopropylamino)quinazoline]
